In PubChem BioAssay (NCI):
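Following 48 hours of exposure in 96-well plates, responses at five concentrations were used to interpolate endpoints linearly. At the TGI there is no net growth.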

Tests used:
Assay in all cases: growth of human tumour cells (NCI), 48 h
NCI-H522 lung = system: NCI-H522 lung
RPMI-8226 leukemia = system: RPMI-8226 leukemia
K-562 leukemia = system: K-562 leukemia
OVCAR-8 ovarian = system: OVCAR-8 ovarian
HOP-92 NSCLC = system: HOP-92 NSCLC
DMS 273 small cell lung = system: DMS 273 small cell lung
HOP-18 NSCLC = system: HOP-18 NSCLC
UACC-257 melanoma = system: UACC-257 melanoma
ACHN renal = system: ACHN renal
M19-MEL melanoma = system: M19-MEL melanoma
UO-31 renal = system: UO-31 renal
NCI-H226 lung = system: NCI-H226 lung
SW-620 colon = system: SW-620 colon
U251 CNS = system: U251 CNS
KM12 colon = system: KM12 colon
KM20L2 colon = system: KM20L2 colon
NCI-H460 lung = system: NCI-H460 lung
SN12C renal = system: SN12C renal
A549 NSCLC = system: A549 NSCLC
SNB-75 CNS = system: SNB-75 CNS
HT29 colon = system: HT29 colon
HCT-116 colon = system: HCT-116 colon
SK-MEL-5 melanoma = system: SK-MEL-5 melanoma
HCC-2998 colon = system: HCC-2998 colon
CCRF-CEM leukemia = system: CCRF-CEM leukemia
M14 melanoma = system: M14 melanoma
RXF 393 renal = system: RXF 393 renal
SK-MEL-2 melanoma = system: SK-MEL-2 melanoma
SNB-19 CNS = system: SNB-19 CNS
DMS 114 small cell lung = system: DMS 114 small cell lung
SK-MEL-28 melanoma = system: SK-MEL-28 melanoma
COLO 205 colon = system: COLO 205 colon
A498 renal = system: A498 renal
HL-60(TB) leukemia = system: HL-60(TB) leukemia
SF-295 CNS = system: SF-295 CNS
UACC-62 melanoma = system: UACC-62 melanoma
SK-OV-3 ovarian = system: SK-OV-3 ovarian
MALME-3M melanoma = system: MALME-3M melanoma
SNB-78 CNS = system: SNB-78 CNS
IGROV1 ovarian = system: IGROV1 ovarian
OVCAR-5 ovarian = system: OVCAR-5 ovarian
HOP-62 NSCLC = system: HOP-62 NSCLC
LXFL 529 NSCLC = system: LXFL 529 NSCLC
CAKI-1 renal = system: CAKI-1 renal
SF-268 CNS = system: SF-268 CNS
OVCAR-3 ovarian = system: OVCAR-3 ovarian
786-0 renal = system: 786-0 renal
SF-539 CNS = system: SF-539 CNS
LOX IMVI melanoma = system: LOX IMVI melanoma
EKVX NSCLC = system: EKVX NSCLC
DLD-1 colon = system: DLD-1 colon
HCT-15 colon = system: HCT-15 colon
TK-10 renal = system: TK-10 renal
OVCAR-4 ovarian = system: OVCAR-4 ovarian
NCI-H23 lung = system: NCI-H23 lung
XF 498 CNS = system: XF 498 CNS
SR leukemia = system: SR leukemia
MOLT-4 leukemia = system: MOLT-4 leukemia
T-47D breast = system: T-47D breast
BT-549 breast = system: BT-549 breast
HS 578T breast = system: HS 578T breast
DU-145 prostate = system: DU-145 prostate
MDA-MB-435 = system: MDA-MB-435
NCI/ADR-RES ovarian = system: NCI/ADR-RES ovarian
MDA-MB-231 breast = system: MDA-MB-231 breast
MDA-N = system: MDA-N
PC-3 prostate = system: PC-3 prostate
MCF7 breast = system: MCF7 breast

Nc1nc(=S)c2c(ncn2CCO)[nH]1
TGI (NCI-H522 lung): > 100 µM
TGI (RPMI-8226 leukemia): > 100 µM
TGI (K-562 leukemia): > 100 µM
TGI (OVCAR-8 ovarian): > 100 µM
TGI (HOP-92 NSCLC): > 100 µM
TGI (DMS 273 small cell lung): > 100 µM
TGI (HOP-18 NSCLC): > 100 µM
TGI (UACC-257 melanoma): > 100 µM
TGI (ACHN renal): > 100 µM
TGI (M19-MEL melanoma): > 100 µM
TGI (UO-31 renal): > 100 µM
TGI (NCI-H226 lung): > 100 µM
TGI (SW-620 colon): > 100 µM
TGI (U251 CNS): > 100 µM
TGI (KM12 colon): > 100 µM
TGI (KM20L2 colon): > 100 µM
TGI (NCI-H460 lung): > 100 µM
TGI (SN12C renal): > 100 µM
TGI (A549 NSCLC): > 100 µM
TGI (SNB-75 CNS): > 100 µM
TGI (HT29 colon): > 100 µM
TGI (HCT-116 colon): > 100 µM
TGI (SK-MEL-5 melanoma): > 100 µM
TGI (HCC-2998 colon): > 100 µM
TGI (CCRF-CEM leukemia): > 100 µM
TGI (M14 melanoma): > 100 µM
TGI (RXF 393 renal): > 100 µM
TGI (SK-MEL-2 melanoma): > 100 µM
TGI (SNB-19 CNS): > 100 µM
TGI (DMS 114 small cell lung): > 100 µM
TGI (SK-MEL-28 melanoma): > 100 µM
TGI (COLO 205 colon): > 100 µM
TGI (A498 renal): > 100 µM
TGI (HL-60(TB) leukemia): > 100 µM
TGI (SF-295 CNS): > 100 µM
TGI (UACC-62 melanoma): > 100 µM
TGI (SK-OV-3 ovarian): > 100 µM
TGI (MALME-3M melanoma): > 100 µM
TGI (SNB-78 CNS): > 100 µM
TGI (IGROV1 ovarian): > 100 µM
TGI (OVCAR-5 ovarian): > 100 µM
TGI (HOP-62 NSCLC): > 100 µM
TGI (LXFL 529 NSCLC): > 100 µM
TGI (CAKI-1 renal): > 100 µM
TGI (SF-268 CNS): > 100 µM
TGI (OVCAR-3 ovarian): > 100 µM
TGI (786-0 renal): > 100 µM
TGI (SF-539 CNS): > 100 µM
TGI (LOX IMVI melanoma): > 100 µM
TGI (EKVX NSCLC): > 100 µM
TGI (DLD-1 colon): > 100 µM
TGI (HCT-15 colon): > 100 µM
TGI (TK-10 renal): > 100 µM
TGI (OVCAR-4 ovarian): > 100 µM

O=C(c1ccc(Cl)cc1)C1OC12C(=O)Nc1c(Cl)cc(Cl)cc12 (centres undefined)
TGI (RPMI-8226 leukemia): 45.4 µM
TGI (K-562 leukemia): > 100 µM
TGI (OVCAR-8 ovarian): > 100 µM
TGI (NCI-H23 lung): > 100 µM
TGI (DMS 273 small cell lung): > 100 µM
TGI (HOP-18 NSCLC): > 100 µM
TGI (UACC-257 melanoma): > 100 µM
TGI (ACHN renal): > 100 µM
TGI (UO-31 renal): > 100 µM
TGI (NCI-H226 lung): > 100 µM
TGI (SW-620 colon): > 100 µM
TGI (U251 CNS): > 100 µM
TGI (KM12 colon): > 100 µM
TGI (KM20L2 colon): > 100 µM
TGI (NCI-H460 lung): > 100 µM
TGI (SN12C renal): > 100 µM
TGI (A549 NSCLC): > 100 µM
TGI (SNB-75 CNS): 83.4 µM
TGI (HT29 colon): > 100 µM
TGI (SK-MEL-5 melanoma): > 100 µM
TGI (HCC-2998 colon): > 100 µM
TGI (XF 498 CNS): 87.8 µM
TGI (CCRF-CEM leukemia): 66.3 µM
TGI (SK-MEL-2 melanoma): > 100 µM
TGI (SNB-19 CNS): > 100 µM
TGI (SK-MEL-28 melanoma): > 100 µM
TGI (A498 renal): > 100 µM
TGI (SF-295 CNS): > 100 µM
TGI (MALME-3M melanoma): > 100 µM
TGI (OVCAR-5 ovarian): > 100 µM
TGI (HOP-62 NSCLC): > 100 µM
TGI (SF-268 CNS): > 100 µM
TGI (OVCAR-3 ovarian): 77.8 µM
TGI (786-0 renal): > 100 µM
TGI (SF-539 CNS): > 100 µM
TGI (LOX IMVI melanoma): > 100 µM
TGI (EKVX NSCLC): 65.2 µM
TGI (DLD-1 colon): > 100 µM
TGI (HCT-15 colon): > 100 µM
TGI (TK-10 renal): > 100 µM

O=C1c2ccccc2C(=O)c2[nH]cnc21
TGI (NCI-H522 lung): > 100 µM
TGI (K-562 leukemia): > 100 µM
TGI (OVCAR-8 ovarian): > 100 µM
TGI (NCI-H23 lung): > 100 µM
TGI (DMS 273 small cell lung): > 100 µM
TGI (UACC-257 melanoma): 54.2 µM
TGI (ACHN renal): > 100 µM
TGI (M19-MEL melanoma): 40.6 µM
TGI (UO-31 renal): > 100 µM
TGI (NCI-H226 lung): 93.3 µM
TGI (U251 CNS): > 100 µM
TGI (KM12 colon): > 100 µM
TGI (NCI-H460 lung): > 100 µM
TGI (SN12C renal): > 100 µM
TGI (A549 NSCLC): > 100 µM
TGI (HT29 colon): > 100 µM
TGI (HCT-116 colon): > 100 µM
TGI (SK-MEL-5 melanoma): 34.2 µM
TGI (HCC-2998 colon): > 100 µM
TGI (XF 498 CNS): 99.4 µM
TGI (CCRF-CEM leukemia): > 100 µM
TGI (M14 melanoma): > 100 µM
TGI (RXF 393 renal): > 100 µM
TGI (SK-MEL-2 melanoma): > 100 µM
TGI (SNB-19 CNS): > 100 µM
TGI (DMS 114 small cell lung): 86.9 µM
TGI (SK-MEL-28 melanoma): > 100 µM
TGI (A498 renal): > 100 µM
TGI (HL-60(TB) leukemia): > 100 µM
TGI (SR leukemia): > 100 µM
TGI (SF-295 CNS): > 100 µM
TGI (UACC-62 melanoma): 82.2 µM
TGI (MALME-3M melanoma): 57.3 µM
TGI (SNB-78 CNS): > 100 µM
TGI (HOP-62 NSCLC): > 100 µM
TGI (CAKI-1 renal): > 100 µM
TGI (SF-268 CNS): > 100 µM
TGI (OVCAR-3 ovarian): 66.2 µM
TGI (786-0 renal): > 100 µM
TGI (MOLT-4 leukemia): > 100 µM
TGI (SF-539 CNS): > 100 µM
TGI (EKVX NSCLC): > 100 µM
TGI (DLD-1 colon): > 100 µM
TGI (HCT-15 colon): > 100 µM
TGI (TK-10 renal): > 100 µM
TGI (OVCAR-4 ovarian): > 100 µM

N#Cc1c(NC(=O)C(F)(F)F)sc2c3c(=O)c4ccccc4c(=O)c=3oc3ccccc3c12
TGI (NCI-H522 lung): 32.6 µM
TGI (T-47D breast): 59.3 µM
TGI (RPMI-8226 leukemia): 56.2 µM
TGI (K-562 leukemia): 75.3 µM
TGI (OVCAR-8 ovarian): > 56 µM
TGI (HOP-92 NSCLC): > 53.6 µM
TGI (NCI-H23 lung): 38.4 µM
TGI (BT-549 breast): 53.3 µM
TGI (HS 578T breast): 14.6 µM
TGI (UACC-257 melanoma): 35.7 µM
TGI (ACHN renal): > 58 µM
TGI (UO-31 renal): 46.4 µM
TGI (NCI-H226 lung): 21.2 µM
TGI (DU-145 prostate): 28.7 µM
TGI (SW-620 colon): 67.1 µM
TGI (U251 CNS): 41.3 µM
TGI (KM12 colon): 26 µM
TGI (NCI-H460 lung): 36.5 µM
TGI (SN12C renal): 55.3 µM
TGI (A549 NSCLC): > 77.6 µM
TGI (SNB-75 CNS): 39.4 µM
TGI (HT29 colon): 41.6 µM
TGI (HCT-116 colon): 29.1 µM
TGI (SK-MEL-5 melanoma): 26.6 µM
TGI (HCC-2998 colon): 31 µM
TGI (MDA-MB-435): 41.4 µM
TGI (CCRF-CEM leukemia): 12.5 µM
TGI (M14 melanoma): > 61.7 µM
TGI (NCI/ADR-RES ovarian): 61.7 µM
TGI (RXF 393 renal): > 63.4 µM
TGI (MDA-MB-231 breast): 67 µM
TGI (MDA-N): 36.5 µM
TGI (SK-MEL-2 melanoma): 54.7 µM
TGI (SNB-19 CNS): 49.5 µM
TGI (SK-MEL-28 melanoma): 51.5 µM
TGI (COLO 205 colon): 32.8 µM
TGI (A498 renal): > 72.3 µM
TGI (HL-60(TB) leukemia): 24.6 µM
TGI (SR leukemia): 13.5 µM
TGI (SF-295 CNS): 35.8 µM
TGI (UACC-62 melanoma): 26 µM
TGI (SK-OV-3 ovarian): 77.2 µM
TGI (MALME-3M melanoma): 13.1 µM
TGI (IGROV1 ovarian): 48.7 µM
TGI (PC-3 prostate): > 62.2 µM
TGI (OVCAR-5 ovarian): 63.3 µM
TGI (HOP-62 NSCLC): > 61.9 µM
TGI (CAKI-1 renal): 31.4 µM
TGI (SF-268 CNS): 61.4 µM
TGI (OVCAR-3 ovarian): > 80.1 µM
TGI (786-0 renal): 72.2 µM
TGI (MOLT-4 leukemia): 34.3 µM
TGI (SF-539 CNS): 32.1 µM
TGI (LOX IMVI melanoma): > 59.1 µM
TGI (EKVX NSCLC): 65.4 µM
TGI (MCF7 breast): > 89.9 µM
TGI (HCT-15 colon): 49.7 µM
TGI (TK-10 renal): 74.6 µM
TGI (OVCAR-4 ovarian): 31.2 µM
